Here are results for two compounds from US11364275B2, “Linear lipopeptide paenipeptins and methods of using the same” (priority 2017, dated 2022).

Converted amounts (≈) assume the structure as drawn. Where a SMILES comes first, the peptide text is derived from it. Bridges are numbered along the chain shown (N, C = ends). [ ]: non-standard residue; d: D form. Dab = NCC[C@H](N)C(=O)O

Experiment [1] concerns A. baumannii FDA-CDC AR 0052.
Experiment [2] relates to A. baumannii FDA-CDC AR 0037.
For experiment [3], the system named is K. pneumoniae FDA-CDC AR 0034.
Experiment [4] deals with K. pneumoniae FDA-CDC AR 0080.
The test system of experiment [5] is A. baumannii FDA-CDC AR 0063.
The test system of experiment [6] is A. baumannii FDA-CDC AR 0083.
Experiment [7] concerns K. pneumoniae FDA-CDC AR 0068.
Experiment [8] deals with K. pneumoniae FDA-CDC AR 0044.
Experiment [9] has as its system A. baumannii FDA-CDC AR 0070.
Experiment [10] has as its system K. pneumoniae FDA-CDC AR 0097.
Experiment [11] relates to 10 carbapenem-resistant strains. The note with it: all 10 tested strains.
The subject of experiment [12] is K. pneumoniae FDA-CDC AR 0068. The experiment can be described thus: microbe, parasite or virus in culture. The note with it: Klebsiella pneumoniae, read-out: MIC alone.
Experiment [13] relates to A. baumannii FDA-CDC AR 0070. The experiment can be described thus: microbe, parasite or virus in culture. The note with it: Acinetobacter baumannii, read-out: MIC alone.
Experiment [14] relates to K. pneumoniae FDA-CDC AR 0034. As to the kind of experiment: microbe, parasite or virus in culture. The note with it: Klebsiella pneumoniae, read-out: MIC alone.
Experiment [15] deals with K. pneumoniae FDA-CDC AR 0097. The experiment can be described thus: microbe, parasite or virus in culture. The note with it: Klebsiella pneumoniae, read-out: MIC alone.
The subject of experiment [16] is A. baumannii FDA-CDC AR 0037. As to the kind of experiment: microbe, parasite or virus in culture. The note with it: Acinetobacter baumannii, read-out: MIC alone.
Experiment [17] concerns K. pneumoniae FDA-CDC AR 0080. The experiment can be described thus: microbe, parasite or virus in culture. The note with it: Klebsiella pneumoniae, read-out: MIC alone.
Experiment [18] relates to A. baumannii FDA-CDC AR 0083. As to the kind of experiment: microbe, parasite or virus in culture. The note with it: Acinetobacter baumannii, read-out: MIC alone.
In experiment [19] the test system is A. baumannii FDA-CDC AR 0063. The experiment can be described thus: microbe, parasite or virus in culture. The note with it: Acinetobacter baumannii, read-out: MIC alone.
In experiment [20] the test system is K. pneumoniae FDA-CDC AR 0044. As to the kind of experiment: microbe, parasite or virus in culture. The note with it: Klebsiella pneumoniae, read-out: MIC alone.
The subject of experiment [21] is K. pneumoniae FDA-CDC AR 0097. The experiment can be described thus: Time-kill kinetics in tryptic soy broth, alone and combined. The experiment is classed as cell-based, Klebsiella pneumoniae. The note with it: K. pneumoniae AR 0097; TSB; analogues 4 μg/ml, antibiotics 1 μg/ml. As for the experimental part: Bacterial viable counts were determined at 0, 2, 4, 6, and 24 h after antimicrobial treatment. Bacterial surviving counts at 24 h endpoints were subjected to analysis of variance (ANOVA) followed by Tukey's honest significant difference (HSD) tests using SPSS Statistics (version 24; SPSS, Inc., Chicago, Ill., USA).

For experiment [22], the system named is A. baumannii FDA-CDC AR 0052. The experiment can be described thus: microbe, parasite or virus in culture. The note with it: Acinetobacter baumannii, read-out: MIC alone.

As for `CC(C)C[C@@H]1NC(=O)[C@@H](Cc2ccccc2)NC(=O)[C@H](CCN)NC(=O)[C@@H](NC(=O)[C@H](CCN)NC(=O)[C@@H](N)[C@@H](C)O)CCNC(=O)[C@H]([C@@H](C)O)NC(=O)[C@H](CCN)NC(=O)[C@H](CCN)NC1=O` [polymyxin B nonapeptide, reference compound] (H-T[Dab][Dab][Dab][dF]L[Dab][Dab]T; lactam 3-C (inferred); N-terminus assumed), the “MIC of clarithromycin at the presence of PMBN or paenipeptin analogue at 4 μg/ml” value in experiment [1] (A. baumannii AR 0052) was 0.0313-0.0625 μg/ml; in experiment [2] (A. baumannii AR 0037), 0.125-0.25 μg/ml; in experiment [3] (K. pneumoniae AR 0034), above 32 μg/ml; in experiment [4] (K. pneumoniae AR 0080), 4 μg/ml; in experiment [5] (A. baumannii AR 0063) it was 0.5-1 μg/ml; in experiment [6] (A. baumannii AR 0083), 32 μg/ml. Also, the “MIC of clarithromycin at the presence of PMBN or paenipeptin analogue at 4 μg/ml” value in experiment [7] (K. pneumoniae AR 0068) is above 32 μg/ml; in experiment [8] (K. pneumoniae AR 0044) it was 4 μg/ml; in experiment [9] (A. baumannii AR 0070), 0.25-0.5 μg/ml; in experiment [10] (K. pneumoniae AR 0097) it was 32 μg/ml. In addition, the “MIC of rifampicin at the presence of PMBN or paenipeptin analogue at 4 μg/ml” value in [1] (A. baumannii AR 0052) is recorded as 0.0625-0.125 μg/ml; in experiment [2] (A. baumannii AR 0037) it was 0.25 μg/ml; in experiment [3] (K. pneumoniae AR 0034), 1 μg/ml; in [4] (K. pneumoniae AR 0080), above 32 μg/ml; in experiment [5] (A. baumannii AR 0063), 0.125 μg/ml; in experiment [6] (A. baumannii AR 0083) it was 8 μg/ml. Also, the “MIC of rifampicin at the presence of PMBN or paenipeptin analogue at 4 μg/ml” value is 2-8 μg/ml in experiment [7] (K. pneumoniae AR 0068), 2 μg/ml in experiment [8] (K. pneumoniae AR 0044), 0.0625-0.125 μg/ml in [9] (A. baumannii AR 0070) and 16 μg/ml in experiment [10] (K. pneumoniae AR 0097). The MIC alone in experiment [1] (FDA-CDC AR 0052), in experiment [2] (FDA-CDC AR 0037), in experiment [3] (FDA-CDC AR 0034), in [4] (FDA-CDC AR 0080), in experiment [5] (FDA-CDC AR 0063) and in experiment [6] (FDA-CDC AR 0083) was above 32 µg/mL throughout. In addition, the MIC alone in experiment [7] (FDA-CDC AR 0068), in experiment [8] (FDA-CDC AR 0044), in experiment [9] (FDA-CDC AR 0070), in experiment [10] (FDA-CDC AR 0097) and in experiment [11] was above 32 µg/mL throughout.

For the compound `CC[C@H]1OC(=O)[C@H](C)[C@@H](O[C@H]2C[C@@](C)(OC)[C@@H](O)[C@H](C)O2)[C@H](C)[C@@H](O[C@@H]2O[C@H](C)C[C@H](N(C)C)[C@H]2O)[C@](C)(OC)C[C@@H](C)C(=O)[C@H](C)[C@@H](O)[C@]1(C)O` [clarithromycin], the MIC in [12] was above 32 µg/mL; in [13] it was 2 to 4 µg/mL (≈ 2.67 to 5.35 µM); in [14], above 32 µg/mL; in [15] it was above 32 µg/mL; in experiment [16] it was 16 µg/mL (≈ 21.4 µM); in [17] it was above 32 µg/mL. Moreover, the MIC was above 32 µg/mL in experiment [18], 16 to 32 µg/mL (≈ 21.4 to 42.8 µM) in [19], above 32 µg/mL in experiment [20] and 4 µg/mL (≈ 5.35 µM) in [22]. Besides, the “bactericidal activity, single agent (in words)” value in experiment [21] was “not bactericidal”.
